Laboratory results taken from patent US11932870B2, “Compositions and methods for immune cell modulation in adoptive immunotherapies” (Fate Therapeutics, Inc., priority 2016, dated 2024).
Entries after “also recorded” stand apart in the source; their conditions may differ.

Experiments:
[1] = tested on: CAR-T cells co-cultured with irradiated K562 tumor cells that express CD19; assay: In vitro serial killing/re-stimulation assay; type: cell-based, human; settings: relative to vehicle
Excerpt: An informative clinical parameter that can in some contexts be indicative of likelihood of successful adoptive cell therapy in clinical trials is the ability and extent of expansion of the transferred cells in the patient post-treatment and/or persistence and continued function following initial expansion, e.g., in the context of continued exposure to antigen. The ability of engineered T cells to persist and continue expanding over multiple rounds of antigen stimulation can be indicative of such features and/or likelihood of in vivo function or clinical response. An in vitro serial killing/re-stimulation assay, where the T cells treated by each compound were evaluated for various functions, including expansion and ability to kill tumor cells expressing the target antigen in vitro over multiple rounds of exposure to and withdrawal from antigen, was used as a model system. Such assays were carried out on cells treated with or without compounds, to assess the impact of individual compounds on cell function after repeated encounter with antigen, and cell expansion or persistence in such contexts.
CD8 T cells were activated, transduced, and expanded in the presence of DMSO, TWS119, or DCC-2036. At the end of the expansion, the CAR-T cells were cryopreserved. The serial re-stimulation assay was performed by thawing the CAR-T cells and co-culturing with irradiated K562 tumor cells that express CD19, the antigen recognized by the CAR. Prior to starting each round of killing, cell numbers were adjusted so that CAR-T cell numbers were substantially the same from the cultures generated with DMSO, TWS119, and DCC-2036 treatment respectively. An equal number of irradiated CD19-expressing K562 target cells were added to the different CAR-T cultures.

Nalm-6-luc tumor cells = assay: In vivo tumor clearance by compound-treated CD19 CAR-T cells; settings: NSG mice with Nalm-6-luc; 2.0×10^5 cryopreserved compound-treated CAR-T cells per animal (1:1 CD4:CD8); imaging; FIGS. 7 and 8
Description: NSG mice were injected with Nalm-6-luc, a CD19+ human tumor line engineered to express firefly luciferase. CAR-T cells were generated from CD4+ and CD8+ T cells that were separately activated and expanded in vitro. The cells were transduced with the CAR-2 construct (FIG. 2) one day after activation and then replated into 24-well GREX plates with or without the compounds. Half the media was replaced every two days thereafter until harvest one week post-activation. Cells were cryopreserved and then thawed for use. NSG mice were infused with tumor cells followed […] by CAR-T transfer via retroorbital injection. Four days after IV. injection with Nalm-6-luc cells, mice were treated with 2.0×10^5 CAR-T cells per animal (1:1 CD4:CD8). The mice were imaged periodically to determine tumor burden.

CD8 CAR-T cells = assay: Exhaustion marker expression (PD-1, Tim-3) on CD8 CAR-T cells; type: cell-based, human
Description: Culturing cells in large-scale for phenotypic and exhaustion marker evaluation. Isolated CD8 T cells were activated in bulk on day 0 using anti-CD3/anti-CD28 beads in T cell media supplemented with IL-2. On day 1, cells were transduced with the CAR Construct and cell density was adjusted to 0.5×10^6/ml and 10^6 cells were seeded into 12-well plates in the presence of vehicle, TWS119, or DCC-2036. On day 4, cells were transferred into 6-well plates and 2 ml of T cell media was added to each well. On day 6 another 2 ml of media was added to each well. On day 8, CAR T cells were analyzed on a flow cytometer for surface expression of phenotypic markers (CD62L, CCR7, and CD27) and exhaustion markers (PD-1 and Tim-3).
To determine the effect of compound treatment of CAR-T cells on exhaustion marker expression, cells from three different donors were prepared and treated as described in the protocol above. PD-1 and Tim-3 expression was determined using flow cytometry. […] Tim-3 expression was reduced 2-fold with TWS119, and 3.7-fold with DCC-2036 treatment (FIG. 6A).

viable CD4+ population = assay: T cell compound screen: CCR7+CD62L+ cells in the viable CD4+ population (flow cytometry); type: cell-based, human; settings: 10 μM, about 6 days, anti-CD3/anti-CD28 beads; hit = Z-score > +2 for percent or absolute number CCR7+CD62L+ in CD4+
Excerpt: In Vitro T Cell Culture. Fresh leukopaks (AllCells, Alameda, CA) were obtained from healthy donors, from which T cells were negatively selected using the EasySep Human T cell Enrichment Kit (Stem Cell Technologies, Vancouver, Canada). The freshly isolated T cells were aliquoted and cryopreserved. On the day the screens were initiated, T cells were thawed and washed into X-Vivo 15 with 5% human AB serum, IL-2, pen/strep, and additional supplements. Cells were dispensed into flat-bottom 384-well plates at 5×10^5 cells/ml with anti-CD3/anti-CD28 beads. Individual compounds were added at a final concentration of 10 μM to each well from column 3 to column 22 of each plate. Positive and negative controls were added to additional wells. Cells were incubated for about 6 days at 37 degrees with 5% CO2.
Flow Cytometry. On Day 6 of culture, cells were stained with a fixable viability marker and fluorophore-conjugated antibodies: CD3, CD4, CD8, CD45RA, CD45RO, CD62L, CCR7, CD27, and CD122 (BD Biosciences, San Jose, CA; and BioLegend, San Diego, CA). Fluorescent absolute counting beads (Spherotech, Lake Forest, IL) were added just prior to acquisition. Data acquisition was performed on a BD Fortessa X-20 (BD Biosciences) and data were analyzed using Treestar software (FlowJo, Ashland, OR) and Spotfire (Tibco, Boston, MA).
These cells are characterized by expression of CCR7 and CD62L. Therefore, cells co-expressing both of these identifying markers were evaluated. Within the viable CD4+ population and viable CD8+ population, the percent of cells co-expressing CCR7 and CD62L was determined. The expression of either CD62L or CCR7 on T cells, as indicative of the desired T cell subsets, have been described as having favorable functional characteristics for CAR-T cell therapy, and potentially other adoptive T cell therapies.
The number of events in each of these gates relative to the number of absolute counting beads in each sample was calculated, defining a measure of the absolute number of naïve, stem cell memory, or central memory T cells within the CD4+ and/or CD8+ populations. A z-Score relative to the screened compound samples within each 384-well plate was calculated for each of these four values: 1) percent CCR7+CD62L+in CD4+, 2) percent CCR7+CD62L+in CD8+, 3) absolute relative number of CCR7+CD62L+in CD4+, and 4) absolute number of CCR7+CD62L+in CD8+(FIGS. 1A and 1i). Z-scores were also calculated for the percent viability of all cells within each sample and the relative absolute number of cells within each sample. A “Z-Score” is a statistical measurement of a score's relationship to the mean in a group of scores. AZ-score of 0 means the score is the same as the mean. AZ-score can also be positive or negative, indicating whether it is above or below the mean and by how many standard deviations.

CNC(=O)c1cc(Oc2ccc(NC(=O)Nc3cc(C(C)(C)C)nn3-c3ccc4ncccc4c3)c(F)c2)ccn1 [DCC-2036, Rebastinib] was tested, and the “cell number expansion of CAR-T cells in rounds 3 and 4 of the serial re-stimulation assay” value ([1]; FIG. 3C) was “much higher than the vehicle control”, the “total expansion in CAR-T cell number through all 4 rounds of the serial re-stimulation assay” value ([1]; FIG. 3D) was “much greater expansion relative to the vehicle control; also recorded: improves cell expansion” and the “tumor burden / tumor control” value (Nalm-6-luc tumor cells) was “dramatically reduced tumor burden; also recorded: able to clear tumor from the majority of mice”. For the same compound, the “expression of T cell exhaustion marker Tim-3” value (CD8 CAR-T cells; CD8 T cells at one week post activation, relative to DMSO, FIG. 6A) was “reduced expression”, the “expression of T cell exhaustion marker PD-1” value (CD8 CAR-T cells; CD8 T cells at one week post activation, relative to DMSO, FIG. 6B) was “reduced expression” and the “reduction of Tim-3 expression” value (CD8 CAR-T cells; relative to vehicle, three donors, FIG. 6A) was 3.7 fold. The “decrease in PD-1 surface expression” value (CD8 CAR-T cells; relative to vehicle, three donors, FIG. 6B) was 4.5 fold and the “CD4 Hit” value (viable CD4+ population) was “CD4”.
